Experimental data from US9150554B2, “Fused ring inhibitors of hepatitis C” (Presidio Pharmaceuticals, Inc., priority 2009, dated 2015).

system: HCV 1b_Huh-Luc/Neo-ET cell line persistently expressing a bicistronic genotype 1b replicon in Huh 7 cells; test: HCV replicon assay, luciferase enzyme activity readout; assay type: cell-based; details: Hepatitis C virus, 72 h incubation, average EC50 range, read-out: Inhibition of HCV genotype 1b
Experimental: Biological activity of the compounds of the invention was determined using an HCV replicon assay. The HCV 1b_Huh-Luc/Neo-ET cell line persistently expressing a bicistronic genotype 1b replicon in Huh 7 cells was obtained from ReBLikon GMBH. This cell line was used to test compound inhibition using luciferase enzyme activity readout as a measurement of compound inhibition of replicon levels.
On Day 1 (the day after plating cells), each compound is added in triplicate to the cells. Plates are incubated for 72 h prior to determining luciferase levels. Enzyme activity was measured using a Bright-Glo Kit (cat. number E2620) manufactured by Promega Corporation. The following equation was used to generate a percent control value for each compound. % Control=(Compound Luciferase Level/Control Luciferase Level)*100
The EC50 value was determined using GraphPad Prism and the following equation: Y=Bottom asymptote+(Top asymptote−Bottom asymptote)/(1+10^((Log EC50−X)*HillSlope))
EC50 values of compounds are determined several times in the replicon assay to generate average EC50 values. […]

COC(=O)N[C@H](C(=O)N1CCC[C@H]1c1ncc(-c2cc3oc4ccc(-c5cnc([C@@H]6CCCN6C(=O)[C@H](NC(=O)OC)c6ccccc6)[nH]5)cc4c(=O)c3cc2F)[nH]1)C(C)C [Compound 27] and COC(=O)N[C@H](C(=O)N1CCC[C@H]1c1ncc(-c2ccc3oc4cc(-c5cnc([C@@H]6CCCN6C(=O)[C@H](NC(=O)OC)c6ccccc6)[nH]5)ccc4c(=O)c3c2)[nH]1)C(C)C [Compound 18] cannot be ordered by EC50: < 1 nM for the first, < 1 nM for the second.

C=CC[C@H](NC(=O)OC)C(=O)N1CCC[C@H]1c1ncc(-c2ccc3c(c2)Oc2ccc(-c4cnc([C@@H]5CCCN5C(=O)[C@H](CC=C)NC(=O)OC)[nH]4)cc2O3)[nH]1 [Compound 55] and COC(=O)N[C@H](C(=O)N1CCC[C@H]1c1ncc(-c2ccc3c(c2)Oc2ccc(-c4cnc([C@@H]5CCCN5C(=O)[C@@H](NC(=O)OC)[C@@H](C)OC)[nH]4)cc2O3)[nH]1)[C@@H](C)OC [Compound 34] cannot be ordered by EC50: < 1 nM for the first, < 1 nM for the second.

COC(=O)N[C@H](C(=O)N[C@@H](C)c1ncc(-c2ccc3c(c2)Oc2ccc(-c4cnc([C@H](C)NC(=O)[C@@H](NC(=O)OC)C(C)C)[nH]4)cc2O3)[nH]1)C(C)C [Compound 39] and COC(=O)N[C@@H](C(=O)N[C@@H](C)c1ncc(-c2ccc3c(c2)Oc2ccc(-c4cnc([C@H](C)NC(=O)[C@H](NC(=O)OC)c5ccccc5)[nH]4)cc2O3)[nH]1)c1ccccc1 [Compound 38] cannot be ordered by EC50: < 1 nM for the first, < 1 nM for the second.

CC[C@H](C)[C@H](NC(=O)OC)C(=O)N1CCC[C@H]1c1ncc(-c2ccc3c(c2)Cc2cc(F)c(-c4cnc([C@@H]5CCCN5C(=O)[C@@H](NC(=O)OC)[C@@H](C)OC)[nH]4)cc2O3)[nH]1 [Compound 41] and CC[C@H](C)[C@H](NC(=O)OC)C(=O)N1CCC[C@H]1c1ncc(-c2ccc3c(c2)Cc2cc(Cl)c(-c4cnc([C@@H]5CCCN5C(=O)[C@@H](NC(=O)OC)[C@@H](C)CC)[nH]4)cc2O3)[nH]1 [Compound 63] cannot be ordered by EC50: < 1 nM for the first, < 1 nM for the second.

First: COC(=O)N[C@H](C(=O)N1CCC[C@H]1c1ncc(-c2ccc3c(c2)Cc2cc(-c4cnc([C@@H]5CCCN5C(=O)[C@@H](NC(=O)OC)C(C)C)[nH]4)ccc2O3)[nH]1)C(C)C [Compound 4]
Second: COC(=O)N[C@H](C(=O)N1CCC[C@H]1c1ncc(-c2ccc3c(c2)Cc2ccc(-c4cnc([C@@H]5CCCN5C(=O)[C@@H](NC(=O)OC)C(C)C)[nH]4)cc2O3)[nH]1)C(C)C [Compound 6]
The EC50 of the first is higher: 10 to 999 nM for the first, < 1 nM for the second.

COC(=O)N[C@@H](C(=O)N1CCC[C@H]1c1ncc(-c2ccc3oc4cc(-c5cnc([C@@H]6CCCN6C(=O)[C@H](NC(=O)OC)c6ccccc6)[nH]5)c(Cl)cc4c(=O)c3c2)[nH]1)c1ccccc1 [Compound 58] and O=C(N[C@@H](C(=O)N1CCC[C@H]1c1ncc(-c2ccc3oc4cc(-c5cnc([C@@H]6CCCN6C(=O)[C@H](NC(=O)OC6CCOCC6)c6ccccc6)[nH]5)c(F)cc4c(=O)c3c2)[nH]1)c1ccccc1)OC1CCOCC1 [Compound 25] cannot be ordered by EC50: < 1 nM for the first, < 1 nM for the second.

COC(=O)N[C@H](C(=O)N1CCC[C@H]1c1ncc(-c2cc3c(cc2F)Cc2cc(-c4cnc([C@@H]5CCCN5C(=O)[C@@H](NC(=O)OC)C5CCOCC5)[nH]4)ccc2O3)[nH]1)C(C)C [Compound 44] and COC(=O)N[C@H](C(=O)N1CCC[C@H]1c1ncc(-c2ccc3c(c2)Cc2cc(F)c(-c4cnc([C@@H]5CCCN5C(=O)[C@@H](NC(=O)OC)[C@@H](C)OC)[nH]4)cc2O3)[nH]1)C1CCOCC1 [Compound 42] cannot be ordered by EC50: < 1 nM for the first, < 1 nM for the second.

COC(=O)N[C@H](C(=O)N1CSC[C@H]1c1ncc(-c2ccc3c(c2)Oc2ccc(-c4cnc([C@@H]5CSCN5C(=O)[C@@H](NC(=O)OC)C5CCCC5)[nH]4)cc2O3)[nH]1)C1CCCC1 [Compound 66] and COC(=O)N[C@H](C(=O)N1CCC[C@H]1c1ncc(-c2ccc3c(c2)Oc2ccc(-c4cnc([C@@H]5CCCN5C(=O)[C@@H](NC(=O)OC)C5CCCC5)[nH]4)cc2O3)[nH]1)C1CCCC1 [Compound 33] cannot be ordered by EC50: < 1 nM for the first, < 1 nM for the second.

COC(=O)N[C@H](C(=O)N1CCC[C@H]1c1ncc(-c2ccc3c(c2)Oc2ccc(-c4cnc([C@@H]5CCCN5C(=O)[C@@H](NC(=O)OC)C5CCOCC5)[nH]4)cc2O3)[nH]1)C1CCOCC1 [Compound 35] and COC(=O)N[C@H](C(=O)N1CCC[C@H]1c1ncc(-c2ccc3oc4cc(-c5cnc([C@@H]6CCCN6C(=O)[C@@H](NC(=O)OC)C6CCOCC6)[nH]5)ccc4c(=O)c3c2)[nH]1)C(C)C [Compound 17] cannot be ordered by EC50: < 1 nM for the first, < 1 nM for the second.

COC(=O)N[C@H](C(=O)N1CCC[C@H]1c1ncc(-c2ccc3c(c2)Cc2ccc(-c4cnc([C@@H]5CCCN5C(=O)[C@@H](NC(=O)OC)[C@@H](C)OC)[nH]4)cc2O3)[nH]1)[C@@H](C)OC [Compound 30] and COC(=O)N[C@H](C(=O)N1CCC[C@H]1c1ncc(-c2ccc3c(c2)Cc2cc(Cl)c(-c4cnc([C@@H]5CCCN5C(=O)[C@@H](NC(=O)OC)C(C)C)[nH]4)cc2O3)[nH]1)C(C)C [Compound 61] cannot be ordered by EC50: < 1 nM for the first, < 1 nM for the second.

First: COC(=O)N[C@H](C(=O)N1CCC[C@H]1c1ncc(-c2ccc3c(c2)Oc2ccc(-c4cnc([C@@H]5CCCN5C(=O)[C@@H](NC(=O)OC)C(C)C)[nH]4)cc2C(=O)N3)[nH]1)C(C)C [Compound 14]
Second: COC(=O)N[C@H](C(=O)N1CCCC[C@H]1c1ncc(-c2ccc3c(c2)Oc2ccc(-c4cnc([C@@H]5CCCCN5C(=O)[C@@H](NC(=O)OC)C(C)C)[nH]4)cc2O3)[nH]1)C(C)C [Compound 47]
The EC50 of the first is higher: 10 to 999 nM for the first, < 1 nM for the second. The second is the more potent here.

CC[C@H](C)[C@H](NC(=O)OC)C(=O)N1CSC[C@H]1c1ncc(-c2ccc3c(c2)Oc2ccc(-c4cnc([C@@H]5CSCN5C(=O)[C@@H](NC(=O)OC)[C@@H](C)CC)[nH]4)cc2O3)[nH]1 [Compound 67] and COC(=O)N[C@H](C(=O)N1CCOC[C@H]1c1ncc(-c2ccc3c(c2)Oc2ccc(-c4cnc([C@@H]5COCCN5C(=O)[C@@H](NC(=O)OC)C(C)C)[nH]4)cc2O3)[nH]1)C(C)C [Compound 64] cannot be ordered by EC50: < 1 nM for the first, < 1 nM for the second.

COC(=O)N[C@H](C(=O)N1CCC[C@H]1c1ncc(-c2cc3oc4ccc(-c5cnc([C@@H]6CCCN6C(=O)[C@@H](NC(=O)OC)C6CCOCC6)[nH]5)cc4c(=O)c3cc2F)[nH]1)C(C)C [Compound 28] and COC(=O)N[C@H](C(=O)N1CCC[C@H]1c1ncc(-c2ccc3oc4cc(-c5cnc([C@@H]6CCCN6C(=O)[C@@H](NC(=O)OC)[C@@H](C)OC)[nH]5)c(Cl)cc4c(=O)c3c2)[nH]1)[C@@H](C)OC [Compound 50] cannot be ordered by EC50: < 1 nM for the first, < 1 nM for the second.

COC(=O)N[C@H](C(=O)N1CCC[C@H]1c1ncc(-c2ccc3c(c2)CN(C)c2ccc(-c4cnc([C@@H]5CCCN5C(=O)[C@@H](NC(=O)OC)C(C)C)[nH]4)cc2CN3C)[nH]1)C(C)C [Compound 13] and COC(=O)N[C@H](C(=O)N1CCC[C@H]1c1ncc(-c2ccc3nc4cc(-c5cnc([C@@H]6CCCN6C(=O)[C@@H](NC(=O)OC)C(C)C)[nH]5)ccc4nc3c2)[nH]1)C(C)C [Compound 1] cannot be ordered by EC50: < 1 nM for the first, < 1 nM for the second.

CC(C)(C)OC(=O)N1CCC[C@H]1c1ncc(-c2ccc3c(=O)c4cc(-c5cnc([C@@H]6CCCN6C(=O)OC(C)(C)C)[nH]5)ccc4oc3c2)[nH]1 [Compound 9] gave an EC50 of 10 to 999 nM.
